Data reported in publication PMC5379193, “Pathogen recognition of a novel C-type lectin from Marsupenaeus japonicus reveals the divergent sugar-binding specificity of QAP motif” (Scientific Reports, 2017).
≈ marks a conversion by molar mass, not a printed value.

Biological target: T1, MjGCTL (rMjGCTL) (Penaeus japonicus, UniProt A0A1L7MZX5)
T1 construct: gene GCTL; secreted from Drosophila S2 cells (pMT/BiP/V5-His C), V5 and His tags kept, Ni-NTA purified; ~50 kDa, glycosylated; ORF 311 aa, 35 kDa predicted; LDLa domain plus CRD (QAP motif)
T1 sequence (A0A1L7MZX5 17-311): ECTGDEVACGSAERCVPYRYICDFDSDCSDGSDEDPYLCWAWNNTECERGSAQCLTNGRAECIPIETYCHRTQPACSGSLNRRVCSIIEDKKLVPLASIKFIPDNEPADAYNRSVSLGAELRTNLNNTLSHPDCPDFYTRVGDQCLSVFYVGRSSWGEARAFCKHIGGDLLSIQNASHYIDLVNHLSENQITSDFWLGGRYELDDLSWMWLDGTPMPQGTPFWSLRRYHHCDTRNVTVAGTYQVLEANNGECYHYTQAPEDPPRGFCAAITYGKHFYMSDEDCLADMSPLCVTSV
Test: inhibition of bacterial agglutination by purified rMjGCTL
Format: biochemical
Settings: V. parahaemolyticus named for Man/Gal/Glc; TBS with 10 mM CaCl2, pH 7, 25 °C; 1 h preincubation; Ca2+-dependent
Description: inhibition of bacterial agglutination by purified rMjGCTL on MjGCTL (rMjGCTL)

**Q.** For `OC[C@H]1O[C@@H](O[C@H]2[C@H](O)[C@@H](O)C(O)O[C@@H]2CO)[C@H](O)[C@@H](O)[C@H]1O` (stereo partly drawn) [Lactose], which Minimum inhibitory concentration is on record?
**A.** 250 mM (≈ 85.6 mg/mL)

**Q.** With `CC(=O)N[C@H]1C(O)O[C@H](CO)[C@@H](O)[C@@H]1O` (stereo partly drawn) [N-Acetyl-D-glucosamine] as the compound, how does the Minimum inhibitory concentration read?
**A.** 250 mM (≈ 55.3 mg/mL)

**Q.** How did the Minimum inhibitory concentration turn out when `OC[C@H]1O[C@H](O[C@H]2[C@H](O)[C@@H](O)C(O)O[C@@H]2CO)[C@H](O)[C@@H](O)[C@@H]1O` (stereo partly drawn) [Maltose] was run?
**A.** 125 mM (≈ 42.8 mg/mL)

**Q.** `OC[C@H]1OC(O)[C@H](O)[C@@H](O)[C@@H]1O` (stereo partly drawn) [D-glucose] was tested. Which Minimum inhibitory concentration did it give?
**A.** 100 mM (≈ 18 mg/mL)

**Q.** How did the Minimum inhibitory concentration turn out when `OC1OC[C@@H](O)[C@H](O)[C@H]1O` (stereo partly drawn) [Xylose] was run?
**A.** 62.5 mM (≈ 9.38 mg/mL)

**Q.** How did the Minimum inhibitory concentration turn out when `C[C@@H]1OC(O)[C@@H](O)[C@H](O)[C@@H]1O` (stereo partly drawn) [Fucose] was run?
**A.** 250 mM (≈ 41 mg/mL)
